# In US20250387419A1, “PARP INHIBITOR-RESISTANT PATIENT TREATED WITH TH-302” (ASCENTAWITS PHARMACEUTICALS, LTD., priority 2021, published 2025):
# “And” between values parts separate entries of the source, which are not always exact repeats. Equal entries are not always repeated.
# Experiments:
# [1] = Safety (body weight) in Capan-1 CDX model (3.2); type: in vivo
# Procedure: (§1) Protocol: Nude BALB/c mice were subcutaneously inoculated with human pancreatic cancer Capan-1 cells, establishing a human pancreatic cancer subcutaneous xenograft model. The mice were divided into 7 groups, 6 in each group: 100 mg/kg of the test drug olaparib as a monotherapy (Group 2); 50 mg/kg of TH-302 as a monotherapy (Group 3, QD); 100 mg/kg of TH-302 as a monotherapy (Group 4); 50 mg/kg of TH-302 as a monotherapy (Group 5, QW); 25 mg/kg of TH-302 as a monotherapy (Group 6); 25 mg/kg TH-302 in combination therapy with 100 mg/kg olaparib (Group 7); and 10% anhydrous ethanol+10% polyoxyethylene (35) castor oil+80% glucose injection solution D5W (pH 7.4) as a vehicle control (Group 1). The vehicle control group and the TH-302 test groups were all administered through tail vein injection. The 50 mg/kg TH-302 monotherapy group (Group 3, QD) was administered once daily for 3 consecutive days. After rest for 4 days and two weeks, the mice were again administered daily for another 3 consecutive days. TH-302 in all the 100 mg/kg (Group 4, QW), 50 mg/kg (Group 5, QW) and 25 mg/kg (Group 6, QW) TH-302 monotherapy groups and 25 mg/kg TH-302+100 mg/kg olaparib combination therapy group (Group 7) was administered once weekly for a total of three weeks. The test drug olaparib in all the groups was orally and intragastrically administered once daily for totally 30 days. Routes of administration, doses and regimens for the human pancreatic cancer Capan-1 animal model are specifically summarized in Table 12.
# (§2) Tumor growth of the treatment and control groups on different days in the experiment were recorded and shown in Table 13, and corresponding tumor volume growth curves of the mice in respective groups are shown in FIG. 7. Efficacy evaluation was conducted based on relative tumor proliferation rates and relative tumor growth inhibition rates, and the results of efficacy analysis are summarized in Table 14. Body weight changes of the treatment and control groups after administration were recorded to investigate safety of the groups in the human pancreatic cancer Capan-1 subcutaneous model. Body weight change rates of the mice on Day 43 are shown in Table 15, and curves showing body weights of the treatment groups over time are plotted in FIG. 8.
# [2] = test system: human pancreatic cancer Capan-1 subcutaneous xenograft model; test: In-depth efficacy in olaparib-resistant pancreatic cancer Capan-1 CDX model (3.2); type: in vivo, mouse; details: for CR Rate: complete response, animals/group
# Procedure: as §1, §2
# A relative tumor proliferation rate, denoted as T/C %, is calculated as a relative tumor volume or a tumor weight of a treatment group as a percentage of that of the control group at a certain point of time according to:
# T/C %=TRTV/CRTV×100% (where TRTV denotes average RTV of the treatment group; CRTV represents average RTV of the vehicle control group; and RTV=Vt/V0, where V0 is a tumor volume of an animal at the time of randomization, and Vt is a tumor volume of the animal after treatment); or
# T/C %=TTW/CTW×100% (where TTW is an average tumor weight of the treatment group at the end of the experiment, and CTW is an average tumor weight of the vehicle control group at the end of the experiment).
# A relative tumor growth inhibition rate, denoted as TGI (%), is calculated according to: TGI %=(1−T/C)×100% (where T and C are relative tumor volumes (RTV) or tumor weights (TW) of a treatment group and the control group, respectively, at a particular point of time).
# [3] = Group 3: 50 mg/kg i.v. QD, Day 43
# [4] = Group 4: 100 mg/kg i.v. QW×3, Day 6
# [5] = Group 4: 100 mg/kg i.v. QW×3, Day 43
# [6] = Group 5: 50 mg/kg i.v. QW×3, Day 6
# [7] = Group 5: 50 mg/kg i.v. QW×3, Day 43
# [8] = Group 6: 25 mg/kg i.v. QW×3, Day 6
# [9] = Group 6: 25 mg/kg i.v. QW×3, Day 43
# [10] = Group 2: 100 mg/kg p.o. QD×30, Day 6
# [11] = Group 2: 100 mg/kg p.o. QD×30, Day 43
structure (smiles),measurement,setting,value
"Cn1c(COP(=O)(NCCBr)NCCBr)cnc1[N+](=O)[O-] [TH-302, evofosfamide]",Average Body Weight g (x ± S),"[1]; Group 3: 50 mg/kg i.v. QD, Day 6",22.1 ± 0.4 g
same,Average Body Weight g (x ± S),[1]; [3],24.5 ± 0.3 g
same,Body Weight Change Rate (%),[1]; [3],10.74% ± 1.25%
same,Average Body Weight g (x ± S),[1]; [4],21.8 ± 0.5 g
same,Average Body Weight g (x ± S),[1]; [5],24.2 ± 0.7 g
same,Body Weight Change Rate (%),[1]; [5],11.04% ± 0.91
same,Average Body Weight g (x ± S),[1]; [6],21.9 ± 0.4 g
same,Average Body Weight g (x ± S),[1]; [7],25.1 ± 0.4 g
same,Body Weight Change Rate (%),[1]; [7],14.81% ± 0.62
same,Average Body Weight g (x ± S),[1]; [8],22.0 ± 0.5 g
same,Average Body Weight g (x ± S),[1]; [9],26.4 ± 0.7 g
same,Body Weight Change Rate (%),[1]; [9],20.46% ± 3.51
same,Body weight loss / tolerance,"[1]; olaparib 100 mg/kg, TH-302 25, 50 (QD), 50 (QW), 100 mg/kg, combination 100 + 25 mg/kg",No significant mouse body weight losses
same,Tumor volume,"[2]; Group 3: 50 mg/kg i.v. QD, Day 9",194.10 mm^3
same,Tumor volume,"[2]; Group 3: 50 mg/kg i.v. QD, Day 13",138.02 mm^3
same,Tumor volume,"[2]; Group 3: 50 mg/kg i.v. QD, Day 16",124.61 mm^3
same,Tumor volume,"[2]; Group 3: 50 mg/kg i.v. QD, Day 20",105.24 mm^3
same,Tumor volume,"[2]; Group 3: 50 mg/kg i.v. QD, Day 23",107.93 mm^3
same,Tumor volume,"[2]; Group 3: 50 mg/kg i.v. QD, Day 27",110.53 mm^3
same,Tumor volume,"[2]; Group 3: 50 mg/kg i.v. QD, Day 30",123.45 mm^3
same,Tumor volume,"[2]; Group 3: 50 mg/kg i.v. QD, Day 34",101.47 mm^3
same,Tumor volume,"[2]; Group 3: 50 mg/kg i.v. QD, Day 37",114.69 mm^3
same,Tumor volume,"[2]; Group 3: 50 mg/kg i.v. QD, Day 41",134.32 mm^3
same,Relative Tumor Volume (x ± S),[2]; [3],0.99 ± 0.22
same,T/C (%),[2]; [3],10.83%
same,TGI (%),[2]; [3],89.17%
same,Tumor volume,"[2]; Group 3: 50 mg/kg i.v. QD, Day 43, 50 mg/kg",146.99 mm^3 and 146.99 ± 37.96 mm^3
same,CR Rate,[2]; [3],0/6
same,Tumor volume,"[2]; Group 3: 50 mg/kg i.v. QD×3, 4 days off, 2 weeks off, QD×3, Day 6",146.76 mm^3
same,Tumor volume,[2]; [4],146.05 mm^3
same,Tumor volume,"[2]; Group 4: 100 mg/kg i.v. QW×3, Day 9",193.80 mm^3
same,Tumor volume,"[2]; Group 4: 100 mg/kg i.v. QW×3, Day 13",123.87 mm^3
same,Tumor volume,"[2]; Group 4: 100 mg/kg i.v. QW×3, Day 16",112.22 mm^3
same,Tumor volume,"[2]; Group 4: 100 mg/kg i.v. QW×3, Day 20",85.08 mm^3
same,Tumor volume,"[2]; Group 4: 100 mg/kg i.v. QW×3, Day 23",59.95 mm^3
same,Tumor volume,"[2]; Group 4: 100 mg/kg i.v. QW×3, Day 27",49.03 mm^3
same,Tumor volume,"[2]; Group 4: 100 mg/kg i.v. QW×3, Day 30",48.35 mm^3
same,Tumor volume,"[2]; Group 4: 100 mg/kg i.v. QW×3, Day 34",65.87 mm^3
same,Tumor volume,"[2]; Group 4: 100 mg/kg i.v. QW×3, Day 37",75.54 mm^3
same,Tumor volume,"[2]; Group 4: 100 mg/kg i.v. QW×3, Day 41",106.10 mm^3
same,Relative Tumor Volume (x ± S),[2]; [5],0.83 ± 0.17
same,T/C (%),[2]; [5],9.11%
same,TGI (%),[2]; [5],90.89%
same,Tumor volume,"[2]; Group 4: 100 mg/kg i.v. QW×3, Day 43, 100 mg/kg",124.68 mm^3 and 124.68 ± 31.35 mm^3
same,CR Rate,[2]; [5],0/6
same,Tumor volume,[2]; [6],147.11 mm^3
same,Tumor volume,"[2]; Group 5: 50 mg/kg i.v. QW×3, Day 9",182.60 mm^3
same,Tumor volume,"[2]; Group 5: 50 mg/kg i.v. QW×3, Day 13",178.72 mm^3
same,Tumor volume,"[2]; Group 5: 50 mg/kg i.v. QW×3, Day 16",181.66 mm^3
same,Tumor volume,"[2]; Group 5: 50 mg/kg i.v. QW×3, Day 20",181.56 mm^3
same,Tumor volume,"[2]; Group 5: 50 mg/kg i.v. QW×3, Day 23",156.49 mm^3
same,Tumor volume,"[2]; Group 5: 50 mg/kg i.v. QW×3, Day 27",152.57 mm^3
same,Tumor volume,"[2]; Group 5: 50 mg/kg i.v. QW×3, Day 30",152.13 mm^3
same,Tumor volume,"[2]; Group 5: 50 mg/kg i.v. QW×3, Day 34",176.07 mm^3
same,Tumor volume,"[2]; Group 5: 50 mg/kg i.v. QW×3, Day 37",198.42 mm^3
same,Tumor volume,"[2]; Group 5: 50 mg/kg i.v. QW×3, Day 41",221.92 mm^3
same,Complete tumor inhibition rate,[2]; [7],33.3%
same,Relative Tumor Volume (x ± S),[2]; [7],1.81 ± 0.64
same,T/C (%),[2]; [7],19.82%
same,TGI (%),[2]; [7],80.18%
same,Tumor volume,"[2]; Group 5: 50 mg/kg i.v. QW×3, Day 43, 50 mg/kg",263.45 mm^3 and 263.45 ± 86.54 mm^3
same,CR Rate,[2]; [7],2/6
same,Tumor volume,[2]; [8],146.81 mm^3
same,Tumor volume,"[2]; Group 6: 25 mg/kg i.v. QW×3, Day 9",213.60 mm^3
same,Tumor volume,"[2]; Group 6: 25 mg/kg i.v. QW×3, Day 13",233.94 mm^3
same,Tumor volume,"[2]; Group 6: 25 mg/kg i.v. QW×3, Day 16",277.57 mm^3
same,Tumor volume,"[2]; Group 6: 25 mg/kg i.v. QW×3, Day 20",295.46 mm^3
same,Tumor volume,"[2]; Group 6: 25 mg/kg i.v. QW×3, Day 23",328.33 mm^3
same,Tumor volume,"[2]; Group 6: 25 mg/kg i.v. QW×3, Day 27",373.13 mm^3
same,Tumor volume,"[2]; Group 6: 25 mg/kg i.v. QW×3, Day 30",454.44 mm^3
same,Tumor volume,"[2]; Group 6: 25 mg/kg i.v. QW×3, Day 34",705.45 mm^3
same,Tumor volume,"[2]; Group 6: 25 mg/kg i.v. QW×3, Day 37",886.42 mm^3
same,Tumor volume,"[2]; Group 6: 25 mg/kg i.v. QW×3, Day 41",1344.26 mm^3
same,Relative Tumor Volume (x ± S),[2]; [9],11.12 ± 3.31
same,T/C (%),[2]; [9],121.59%
same,TGI (%),[2]; [9],−21.59%
same,Tumor volume,"[2]; Group 6: 25 mg/kg i.v. QW×3, Day 43, 25 mg/kg",1521.33 mm^3 and 1521.33 ± 349.46 mm^3
same,CR Rate,[2]; [9],0/6
O=C(c1cc(Cc2n[nH]c(=O)c3ccccc23)ccc1F)N1CCN(C(=O)C2CC2)CC1 [olaparib],Average Body Weight g (x ± S),[1]; [10],21.9 ± 0.4 g
same,Average Body Weight g (x ± S),[1]; [11],24.2 ± 0.4 g
same,Body Weight Change Rate (%),[1]; [11],10.95% ± 2.07%
same,Tumor volume,[2]; [10],146.72 mm^3
same,Tumor volume,"[2]; Group 2: 100 mg/kg p.o. QD×30, Day 9",223.17 mm^3
same,Tumor volume,"[2]; Group 2: 100 mg/kg p.o. QD×30, Day 13",263.96 mm^3
same,Tumor volume,"[2]; Group 2: 100 mg/kg p.o. QD×30, Day 16",314.03 mm^3
same,Tumor volume,"[2]; Group 2: 100 mg/kg p.o. QD×30, Day 20",373.87 mm^3
same,Tumor volume,"[2]; Group 2: 100 mg/kg p.o. QD×30, Day 23",419.26 mm^3
same,Tumor volume,"[2]; Group 2: 100 mg/kg p.o. QD×30, Day 27",518.48 mm^3
same,Tumor volume,"[2]; Group 2: 100 mg/kg p.o. QD×30, Day 30",550.33 mm^3
same,Tumor volume,"[2]; Group 2: 100 mg/kg p.o. QD×30, Day 34",604.32 mm^3
same,Tumor volume,"[2]; Group 2: 100 mg/kg p.o. QD×30, Day 37",725.18 mm^3
same,Tumor volume,"[2]; Group 2: 100 mg/kg p.o. QD×30, Day 41",767.49 mm^3
same,Relative Tumor Volume (x ± S),[2]; [11],5.72 ± 0.54
same,T/C (%),[2]; [11],62.57%
same,TGI (%),[2]; [11],37.43%
same,Tumor volume,"[2]; Group 2: 100 mg/kg p.o. QD×30, Day 43, 100 mg/kg",846.86 mm^3 and 846.86 ± 128.85 mm^3
same,CR Rate,[2]; [11],0/6
